Assay: Anticancer human tumor 997537-175-T-J1-PDC patient-derived colon adenocarcinoma cell line growth inhibition [POLQ]
Settings: 997537-175-T-J1-PDC complex spheroid viability, combination with POLQ inhibitors; for IC50: curve of first compound; for viability, T/C: stronger effect = lower value
Method in brief: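 Patient-derived tumour cells were co-cultured with HUVEC and mesenchymal stem cells as multicellular spheroids at 37 °C. They were treated with POLQ inhibitors (novobiocin, ART-558, RP6685) alone or combined with other agents. Top concentrations were at or near clinical Cmax (otherwise 10 microM; SN-38 at 1 microM), decreasing in half-log steps.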

[1] = second compound 0.0316 µM, first compound 0.0316 µM
[2] = second compound 0.0316 µM, first compound 0.1 µM
[3] = second compound 0.0316 µM, first compound 0.316 µM
[4] = second compound 0.0316 µM, first compound 1 µM
[5] = second compound 0.1 µM, first compound 0.0316 µM
[6] = second compound 0.1 µM, first compound 0.1 µM
[7] = second compound 0.1 µM, first compound 0.316 µM
[8] = second compound 0.1 µM, first compound 1 µM
[9] = second compound 0.316 µM, first compound 0.0316 µM
[10] = second compound 0.316 µM, first compound 0.1 µM
[11] = second compound 0.316 µM, first compound 0.316 µM
[12] = second compound 0.316 µM, first compound 1 µM
[13] = second compound 1 µM, first compound 0.0316 µM
[14] = second compound 1 µM, first compound 0.1 µM
[15] = second compound 1 µM, first compound 0.316 µM
[16] = second compound 1 µM, first compound 1 µM
[17] = second compound 3.16 µM, first compound 0.0316 µM
[18] = second compound 3.16 µM, first compound 0.1 µM
[19] = second compound 3.16 µM, first compound 0.316 µM
[20] = second compound 3.16 µM, first compound 1 µM
[21] = second compound 10 µM, first compound 0.0316 µM
[22] = second compound 10 µM, first compound 0.1 µM
[23] = second compound 10 µM, first compound 0.316 µM
[24] = second compound 10 µM, first compound 1 µM
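Also: luminescence signal used as a surrogate for viable cells; spheroids exposed to drugs for seven days before readout.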

## CNCc1ccc(-c2[nH]c3cc(F)cc4c3c2CCNC4=O)cc1 + Cc1cccc(N(C)C(=O)C2C(O)CCN2c2nc(C)cc(C(F)(F)F)c2C#N)c1
Second compound 0.0316 µM
  IC50: > 10 µM
Second compound 0.1 µM
  IC50: > 10 µM
Second compound 0.316 µM
  IC50: > 10 µM
Second compound 1 µM
  IC50: > 10 µM
Second compound 3.16 µM
  IC50: > 10 µM
Second compound 10 µM
  IC50: > 10 µM
[1]
  viability, T/C: 94.7%
[2]
  viability, T/C: 114%
[3]
  viability, T/C: 81.6%
[4]
  viability, T/C: 87.9%
Second compound 0.0316 µM, first compound 3.16 µM
  viability, T/C: 109%
Second compound 0.0316 µM, first compound 10 µM
  viability, T/C: 85.3%
[5]
  viability, T/C: 119%
[6]
  viability, T/C: 94.2%
[7]
  viability, T/C: 103%
[8]
  viability, T/C: 104%
Second compound 0.1 µM, first compound 3.16 µM
  viability, T/C: 101%
Second compound 0.1 µM, first compound 10 µM
  viability, T/C: 121%
[9]
  viability, T/C: 105%
[10]
  viability, T/C: 103%
[11]
  viability, T/C: 99.5%
[12]
  viability, T/C: 102%
Second compound 0.316 µM, first compound 3.16 µM
  viability, T/C: 119%
Second compound 0.316 µM, first compound 10 µM
  viability, T/C: 89.5%
[13]
  viability, T/C: 92.4%
[14]
  viability, T/C: 113%
[15]
  viability, T/C: 99%
[16]
  viability, T/C: 86.3%
Second compound 1 µM, first compound 3.16 µM
  viability, T/C: 99.8%
Second compound 1 µM, first compound 10 µM
  viability, T/C: 90.2%
[17]
  viability, T/C: 116%
[18]
  viability, T/C: 84.8%
[19]
  viability, T/C: 99.8%
[20]
  viability, T/C: 117%
Second compound 3.16 µM, first compound 3.16 µM
  viability, T/C: 82.1%
Second compound 3.16 µM, first compound 10 µM
  viability, T/C: 96.9%
[21]
  viability, T/C: 103%
[22]
  viability, T/C: 112%
[23]
  viability, T/C: 94.2%
[24]
  viability, T/C: 101%
Second compound 10 µM, first compound 3.16 µM
  viability, T/C: 95.5%
Second compound 10 µM, first compound 10 µM
  viability, T/C: 89.4%

## COc1cccc(OCCCN)c1-c1cc(Nc2cnc(C#N)cn2)n[nH]1 + Cc1cccc(N(C)C(=O)C2C(O)CCN2c2nc(C)cc(C(F)(F)F)c2C#N)c1
Second compound 0.0316 µM
  IC50: 0.131 µM
Second compound 0.1 µM
  IC50: 0.139 µM
Second compound 0.316 µM
  IC50: 0.125 µM
Second compound 1 µM
  IC50: 0.039 µM
Second compound 3.16 µM
  IC50: 0.0237 µM
Second compound 10 µM
  IC50: 0.135 µM
Second compound 0.0316 µM, first compound 0.00316 µM
  viability, T/C: 92.7%
Second compound 0.0316 µM, first compound 0.01 µM
  viability, T/C: 97.7%
[1]
  viability, T/C: 79%
[2]
  viability, T/C: 60.8%
[3]
  viability, T/C: 22.5%
[4]
  viability, T/C: 27.9%
Second compound 0.1 µM, first compound 0.00316 µM
  viability, T/C: 111%
Second compound 0.1 µM, first compound 0.01 µM
  viability, T/C: 107%
[5]
  viability, T/C: 50.1%
[6]
  viability, T/C: 73%
[7]
  viability, T/C: 32.8%
[8]
  viability, T/C: 31.2%
Second compound 0.316 µM, first compound 0.00316 µM
  viability, T/C: 100%
Second compound 0.316 µM, first compound 0.01 µM
  viability, T/C: 79.8%
[9]
  viability, T/C: 70.1%
[10]
  viability, T/C: 45.3%
[11]
  viability, T/C: 48.2%
[12]
  viability, T/C: 20%
Second compound 1 µM, first compound 0.00316 µM
  viability, T/C: 101%
Second compound 1 µM, first compound 0.01 µM
  viability, T/C: 79.1%
[13]
  viability, T/C: 59.6%
[14]
  viability, T/C: 25.9%
[15]
  viability, T/C: 29.5%
[16]
  viability, T/C: 27.4%
Second compound 3.16 µM, first compound 0.00316 µM
  viability, T/C: 86.6%
Second compound 3.16 µM, first compound 0.01 µM
  viability, T/C: 85.4%
[17]
  viability, T/C: 38%
[18]
  viability, T/C: 20.6%
[19]
  viability, T/C: 18.4%
[20]
  viability, T/C: 36%
Second compound 10 µM, first compound 0.00316 µM
  viability, T/C: 86.8%
Second compound 10 µM, first compound 0.01 µM
  viability, T/C: 73.6%
[21]
  viability, T/C: 62.9%
[22]
  viability, T/C: 45.8%
[23]
  viability, T/C: 53.1%
[24]
  viability, T/C: 30.1%

Reference: PubChem BioAssay AID1963825 (Molecular Pharmacology Branch, DTP, NCI, 2024)
